Experimental findings from ChEMBL document CHEMBL1201862, “PubChem BioAssay data set” (2004) are described below.

Assay [1] can be described thus: viability loss in MITF-independent A375 cells – cell-based, CellTiter-Glo luminescence, dry powder, set 6, counter-screen for MITF inhibitor project, dose response (AID 624488). The assay is classed as functional. The note with it: A-375.
A short description of assay [2]: growth inhibition of SK-MEL-5 melanoma cells – cell-based, CellTiter-Glo luminescence, dry powder, set 8, orthogonal assay for MITF inhibitor project, dose response (AID 651586). The format is functional. (In ATP-based viability assays light output follows the ATP content of the culture.)
Assay [3] can be described thus: viability loss in MITF-independent A375 cells – cell-based, CellTiter-Glo luminescence, dry powder, set 7, counter-screen for MITF inhibitor project, dose response (AID 624490). As to conditions: A-375. The assay is classed as functional.
Assay [4] in a line: cytotoxicity in MITF-independent A375 cells – cell-based, CellTiter-Glo luminescence, dry powder, set 4, counter-screen for MITF inhibitor project, dose response (AID 624364).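 Note: A375 melanoma cells are MITF independent so this is a counter screen.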 The format is functional. As to conditions: A-375.
Assay [5] is described as follows: inhibitors of TRPM1-promoter reporter in SK-MEL-5 – cell-based, luciferase, dry powder, set 9, MITF inhibitor project, dose response (AID 651588). The format is functional.
For assay [6], the target named is Intestinal-type alkaline phosphatase (Mus musculus, UniProt P24822). As to the kind of experiment: mouse intestinal alkaline phosphatase activators, dose response, biochemical, luminescence, uHTS hits (AID 488783). The format is functional.
Assay [7] has as its target Induced myeloid leukemia cell differentiation protein Mcl-1 (Homo sapiens, UniProt Q07820). The assay is classed as functional.
Assay [8] concerns the target Aspartyl aminopeptidase (Plasmodium falciparum 3D7, UniProt Q8I2J3).
Assay [9] concerns the target T1, Orexin receptor type 2 (Homo sapiens, UniProt O43614).
T1 sequence (O43614 whole entry): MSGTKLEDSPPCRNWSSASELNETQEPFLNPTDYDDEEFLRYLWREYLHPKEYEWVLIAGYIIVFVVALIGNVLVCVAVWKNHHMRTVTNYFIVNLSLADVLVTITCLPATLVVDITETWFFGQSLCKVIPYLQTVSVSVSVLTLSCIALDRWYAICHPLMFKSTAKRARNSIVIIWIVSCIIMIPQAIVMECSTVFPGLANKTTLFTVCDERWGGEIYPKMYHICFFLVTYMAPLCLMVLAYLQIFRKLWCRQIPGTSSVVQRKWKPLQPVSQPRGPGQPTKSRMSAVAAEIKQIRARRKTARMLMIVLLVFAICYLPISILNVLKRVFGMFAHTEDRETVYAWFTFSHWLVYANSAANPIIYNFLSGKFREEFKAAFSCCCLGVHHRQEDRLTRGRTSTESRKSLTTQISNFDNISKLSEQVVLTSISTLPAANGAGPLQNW
As to the kind of experiment: Counterscreen assay for antagonists of the orexin 1 receptor (OX1R; HCRTR1): Homogeneous Time Resolved Fluorescence (HTRF)-based cell-based dose response assay for antagonists of the orexin 2 receptor (OX2R; HCRTR2), run by assay provider. The assay is classed as functional.

For assay [10], the target named is BDNF/NT-3 growth factors receptor (Homo sapiens, UniProt Q16620). The format is functional.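 Note: NTRK2 measured as one member of a broad kinome-wide kinase profiling panel.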
Assay [11] addresses MAP kinase-activated protein kinase 3 (Homo sapiens, UniProt Q16644). The assay is classed as functional.
The target in assay [12] is Serine/threonine-protein kinase 3 (Homo sapiens, UniProt Q13188). The assay is classed as functional.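 Note: measured as one member of a kinome-wide kinase panel.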
Assay [13] concerns the target MAP kinase-activated protein kinase 2 (Homo sapiens, UniProt P49137). The assay is classed as functional.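 Note: measured as one member of a kinome-wide kinase panel.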
The target in assay [14] is MAP kinase-interacting serine/threonine-protein kinase 2 (Homo sapiens, UniProt Q9HBH9). The assay is classed as functional.
Assay [15] has as its target Interleukin-1 receptor-associated kinase 4 (Homo sapiens, UniProt Q9NWZ3). The format is functional.
The target of assay [16] is Mitogen-activated protein kinase kinase kinase kinase 2 (Homo sapiens, UniProt Q12851). The format is functional.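 Note: measured as one member of a kinome-wide kinase panel, with MAP4K2 as the panel entry.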
Assay [17] concerns the target Proto-oncogene tyrosine-protein kinase receptor Ret (Homo sapiens, UniProt P07949). The format is functional.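 Note: measured within a kinome-wide profiling panel, RET as the panel member.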
Assay [18] concerns the target Glycogen synthase kinase-3 beta (Homo sapiens, UniProt P49841). The format is functional.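 Note: value comes from a broad kinome profiling panel, with GSK3B as the panel member.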
The target of assay [19] is Inhibitor of nuclear factor kappa-B kinase subunit epsilon (Homo sapiens, UniProt Q14164). As to the kind of experiment: Navigating the Kinome. Panel member name: IKBKE. The assay is classed as functional.
The target in assay [20] is Serine/threonine-protein kinase Nek2 (Homo sapiens, UniProt P51955). The format is functional.
Assay [21] addresses Serine/threonine-protein kinase TBK1 (Homo sapiens, UniProt Q9UHD2). As to the kind of experiment: Navigating the Kinome. Panel member name: TBK1. The format is functional.
Assay [22] has as its target Serine/threonine-protein kinase 17A (Homo sapiens, UniProt Q9UEE5). The assay is classed as functional.
The target in assay [23] is ALK tyrosine kinase receptor (Homo sapiens, UniProt Q9UM73). The assay is classed as functional.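 Note: ALK tested as one member of a kinase panel screen.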
For assay [24], the target named is Cyclin-dependent kinase 7 (Homo sapiens, UniProt P50613). The format is functional.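 Note: value comes from a kinome-wide kinase profiling panel in which CDK7 is one member.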
For assay [25], the target named is Serine/threonine-protein kinase PLK4 (Homo sapiens, UniProt O00444). The format is functional.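 Note: PLK4 measured as one member of a kinome-wide kinase profiling panel.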
In assay [26] the target is Receptor tyrosine-protein kinase erbB-4 (Homo sapiens, UniProt Q15303). The format is functional.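 Note: ERBB4 member of a kinome-wide kinase profiling panel.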
Assay [27] concerns the target Serine/threonine-protein kinase TAO1 (Homo sapiens, UniProt Q7L7X3). The format is functional.
Assay [28] deals with Casein kinase I isoform alpha (Homo sapiens, UniProt P48729). The format is functional.
Assay [29] has as its target Tyrosine-protein kinase FRK (Homo sapiens, UniProt P42685). The format is functional.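 Note: FRK tested as one member of a kinome panel.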
In assay [30] the target is Mast/stem cell growth factor receptor Kit (Homo sapiens, UniProt P10721). The format is functional.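 Note: KIT entry within a kinase panel assay.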
Assay [31] has as its target Leukocyte tyrosine kinase receptor (Homo sapiens, UniProt P29376). As to the kind of experiment: Navigating the Kinome. Panel member name: LTK. The assay is classed as functional.
The target of assay [32] is Megakaryocyte-associated tyrosine-protein kinase (Homo sapiens, UniProt P42679). The assay is classed as functional.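 Note: affinity measured as one member of a kinase panel (Navigating the Kinome) against MATK.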
In assay [33] the target is Nonstructural protein 1 (Influenza A virus, UniProt Q194T2). The format is functional, Influenza A virus (A/California/07/2009(H1N1)).
The subject of assay [34] is Streptococcus sp. 'group A'. As to the kind of experiment: Streptococcus pyogenes SK(-)GAS viability under kanamycin – luminescence, BacTiterGlo, confirmation, counter-screen for streptokinase expression inhibitor project, dose response (AID 1900). The format is functional, organism-based. For orientation: A counterscreen serves to expose hits that act by an unwanted route or on another target.

A short description of assay [35]: NIH3T3 cell viability loss – ATP luminescence, mouse fibroblasts, counter-screen, dose response (AID 2010).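 Note: cells exposed to compound for about 90 hours before reading.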 The assay is classed as functional, cell-based.

Activity calls are given as the source filed them.

Sequence of Induced myeloid leukemia cell differentiation protein Mcl-1 (Q07820 whole entry): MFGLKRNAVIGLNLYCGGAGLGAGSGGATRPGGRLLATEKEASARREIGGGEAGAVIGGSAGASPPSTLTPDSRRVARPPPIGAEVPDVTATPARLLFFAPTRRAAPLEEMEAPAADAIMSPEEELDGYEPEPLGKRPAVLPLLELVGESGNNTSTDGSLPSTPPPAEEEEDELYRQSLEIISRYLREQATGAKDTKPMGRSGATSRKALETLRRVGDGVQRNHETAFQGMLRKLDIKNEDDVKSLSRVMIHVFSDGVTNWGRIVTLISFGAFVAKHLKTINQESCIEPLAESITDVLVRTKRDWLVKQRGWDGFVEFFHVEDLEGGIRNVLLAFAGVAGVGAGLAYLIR
Sequence of Cyclin-dependent kinase 7 (P50613 whole entry): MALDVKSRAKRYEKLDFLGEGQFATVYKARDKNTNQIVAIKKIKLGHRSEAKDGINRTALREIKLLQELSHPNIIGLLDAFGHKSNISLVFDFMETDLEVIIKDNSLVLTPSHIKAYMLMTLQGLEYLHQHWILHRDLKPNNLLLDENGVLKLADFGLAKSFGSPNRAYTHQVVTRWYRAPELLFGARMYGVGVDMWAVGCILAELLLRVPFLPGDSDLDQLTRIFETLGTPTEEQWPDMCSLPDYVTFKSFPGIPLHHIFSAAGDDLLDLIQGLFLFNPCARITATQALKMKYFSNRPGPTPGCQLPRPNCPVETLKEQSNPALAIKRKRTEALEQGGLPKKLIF
Sequence of MAP kinase-activated protein kinase 2 (P49137 whole entry): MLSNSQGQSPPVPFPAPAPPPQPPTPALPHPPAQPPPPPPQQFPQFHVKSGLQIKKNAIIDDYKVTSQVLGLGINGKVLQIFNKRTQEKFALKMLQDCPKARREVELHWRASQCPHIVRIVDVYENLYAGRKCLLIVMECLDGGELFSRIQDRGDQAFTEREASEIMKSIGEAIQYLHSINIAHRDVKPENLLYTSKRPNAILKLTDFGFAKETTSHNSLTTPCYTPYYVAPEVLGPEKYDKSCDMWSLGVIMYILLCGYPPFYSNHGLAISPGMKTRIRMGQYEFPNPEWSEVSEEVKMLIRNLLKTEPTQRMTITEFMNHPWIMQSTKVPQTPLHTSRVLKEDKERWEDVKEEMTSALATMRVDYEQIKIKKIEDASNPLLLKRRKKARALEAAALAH
Sequence of Inhibitor of nuclear factor kappa-B kinase subunit epsilon (Q14164 whole entry): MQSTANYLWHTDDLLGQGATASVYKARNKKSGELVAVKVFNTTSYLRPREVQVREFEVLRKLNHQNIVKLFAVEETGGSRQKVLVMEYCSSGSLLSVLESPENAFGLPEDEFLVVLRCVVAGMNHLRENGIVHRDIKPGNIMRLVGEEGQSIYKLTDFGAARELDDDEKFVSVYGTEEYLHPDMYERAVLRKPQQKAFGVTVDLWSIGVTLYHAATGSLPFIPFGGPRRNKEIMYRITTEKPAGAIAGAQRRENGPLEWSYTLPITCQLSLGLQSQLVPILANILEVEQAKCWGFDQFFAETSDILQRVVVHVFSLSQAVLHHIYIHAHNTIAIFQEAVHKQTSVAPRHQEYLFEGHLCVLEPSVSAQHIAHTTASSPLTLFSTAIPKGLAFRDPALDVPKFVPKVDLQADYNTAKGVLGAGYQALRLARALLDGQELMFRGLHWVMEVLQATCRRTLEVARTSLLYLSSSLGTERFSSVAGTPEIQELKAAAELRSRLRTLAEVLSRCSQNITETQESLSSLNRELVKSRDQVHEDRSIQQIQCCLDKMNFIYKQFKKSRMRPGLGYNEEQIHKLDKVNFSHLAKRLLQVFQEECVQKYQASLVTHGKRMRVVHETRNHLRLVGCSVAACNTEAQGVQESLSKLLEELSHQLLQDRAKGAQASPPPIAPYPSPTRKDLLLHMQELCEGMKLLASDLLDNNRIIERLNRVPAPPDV
Sequence of ALK tyrosine kinase receptor (Q9UM73 whole entry): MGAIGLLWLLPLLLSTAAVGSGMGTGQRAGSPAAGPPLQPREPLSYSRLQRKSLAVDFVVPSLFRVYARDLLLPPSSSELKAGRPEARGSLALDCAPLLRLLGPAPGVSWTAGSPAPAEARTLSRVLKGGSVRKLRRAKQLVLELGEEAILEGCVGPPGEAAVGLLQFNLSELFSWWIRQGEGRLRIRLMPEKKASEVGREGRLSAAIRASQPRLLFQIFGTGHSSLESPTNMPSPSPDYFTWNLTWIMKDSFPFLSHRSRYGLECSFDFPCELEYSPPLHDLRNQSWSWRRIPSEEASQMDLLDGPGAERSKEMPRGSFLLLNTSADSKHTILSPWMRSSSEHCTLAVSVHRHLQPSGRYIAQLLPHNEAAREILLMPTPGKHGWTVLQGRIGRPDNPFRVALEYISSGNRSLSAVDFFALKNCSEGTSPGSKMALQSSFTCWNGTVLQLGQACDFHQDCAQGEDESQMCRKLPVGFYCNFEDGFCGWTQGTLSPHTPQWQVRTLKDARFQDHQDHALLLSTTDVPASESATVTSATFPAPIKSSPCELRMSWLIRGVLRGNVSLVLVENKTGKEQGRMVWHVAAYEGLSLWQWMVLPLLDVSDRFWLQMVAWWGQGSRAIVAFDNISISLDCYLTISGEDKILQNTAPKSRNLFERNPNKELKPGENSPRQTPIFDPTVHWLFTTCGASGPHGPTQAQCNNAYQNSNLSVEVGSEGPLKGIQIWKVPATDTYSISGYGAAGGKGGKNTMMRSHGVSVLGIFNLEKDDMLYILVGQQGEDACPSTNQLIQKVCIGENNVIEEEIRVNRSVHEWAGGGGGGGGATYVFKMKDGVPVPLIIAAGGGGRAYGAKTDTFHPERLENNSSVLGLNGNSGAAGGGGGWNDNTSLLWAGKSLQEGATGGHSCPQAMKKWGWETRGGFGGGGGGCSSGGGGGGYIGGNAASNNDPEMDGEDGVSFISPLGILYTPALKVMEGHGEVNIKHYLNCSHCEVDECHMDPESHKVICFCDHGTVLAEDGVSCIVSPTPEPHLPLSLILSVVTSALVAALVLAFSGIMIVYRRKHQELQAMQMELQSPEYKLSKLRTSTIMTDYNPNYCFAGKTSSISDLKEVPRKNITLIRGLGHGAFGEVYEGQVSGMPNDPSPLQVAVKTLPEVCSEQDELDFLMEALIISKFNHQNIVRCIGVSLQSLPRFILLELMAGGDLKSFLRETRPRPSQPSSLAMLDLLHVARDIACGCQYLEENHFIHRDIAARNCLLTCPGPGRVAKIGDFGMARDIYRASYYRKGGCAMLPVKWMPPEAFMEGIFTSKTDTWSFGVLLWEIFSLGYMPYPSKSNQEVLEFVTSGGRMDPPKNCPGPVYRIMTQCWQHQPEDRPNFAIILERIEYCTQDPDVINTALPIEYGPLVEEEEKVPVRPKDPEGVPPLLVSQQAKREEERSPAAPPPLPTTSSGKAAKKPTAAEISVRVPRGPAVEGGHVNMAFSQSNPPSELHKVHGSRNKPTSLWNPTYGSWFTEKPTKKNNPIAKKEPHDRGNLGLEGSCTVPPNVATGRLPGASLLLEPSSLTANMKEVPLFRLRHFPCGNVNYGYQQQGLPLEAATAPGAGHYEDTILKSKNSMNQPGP
Sequence of Mast/stem cell growth factor receptor Kit (P10721 whole entry): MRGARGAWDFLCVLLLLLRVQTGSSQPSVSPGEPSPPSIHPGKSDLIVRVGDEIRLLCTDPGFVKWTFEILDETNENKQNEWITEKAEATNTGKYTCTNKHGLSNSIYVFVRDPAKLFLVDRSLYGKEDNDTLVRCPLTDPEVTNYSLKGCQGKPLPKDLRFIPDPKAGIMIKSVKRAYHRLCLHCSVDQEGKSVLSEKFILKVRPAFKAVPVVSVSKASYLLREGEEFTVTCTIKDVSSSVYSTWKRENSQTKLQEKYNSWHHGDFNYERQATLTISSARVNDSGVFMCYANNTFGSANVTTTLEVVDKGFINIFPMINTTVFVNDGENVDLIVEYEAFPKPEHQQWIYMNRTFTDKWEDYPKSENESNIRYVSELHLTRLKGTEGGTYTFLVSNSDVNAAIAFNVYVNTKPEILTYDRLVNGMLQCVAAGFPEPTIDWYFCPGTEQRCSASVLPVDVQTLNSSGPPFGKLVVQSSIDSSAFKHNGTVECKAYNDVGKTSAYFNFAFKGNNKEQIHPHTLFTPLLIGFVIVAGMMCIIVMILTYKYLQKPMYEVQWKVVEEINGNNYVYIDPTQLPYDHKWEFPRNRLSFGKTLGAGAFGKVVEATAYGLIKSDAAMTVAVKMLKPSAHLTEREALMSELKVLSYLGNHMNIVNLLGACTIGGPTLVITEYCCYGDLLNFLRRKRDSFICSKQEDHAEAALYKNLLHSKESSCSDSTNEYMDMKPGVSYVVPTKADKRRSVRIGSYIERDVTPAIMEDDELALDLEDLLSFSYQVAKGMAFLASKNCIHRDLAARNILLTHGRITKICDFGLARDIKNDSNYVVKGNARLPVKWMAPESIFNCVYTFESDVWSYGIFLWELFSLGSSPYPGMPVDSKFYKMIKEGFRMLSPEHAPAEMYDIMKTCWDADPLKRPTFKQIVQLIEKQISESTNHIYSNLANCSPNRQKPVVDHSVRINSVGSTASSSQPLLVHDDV
Sequence of Interleukin-1 receptor-associated kinase 4 (Q9NWZ3 whole entry): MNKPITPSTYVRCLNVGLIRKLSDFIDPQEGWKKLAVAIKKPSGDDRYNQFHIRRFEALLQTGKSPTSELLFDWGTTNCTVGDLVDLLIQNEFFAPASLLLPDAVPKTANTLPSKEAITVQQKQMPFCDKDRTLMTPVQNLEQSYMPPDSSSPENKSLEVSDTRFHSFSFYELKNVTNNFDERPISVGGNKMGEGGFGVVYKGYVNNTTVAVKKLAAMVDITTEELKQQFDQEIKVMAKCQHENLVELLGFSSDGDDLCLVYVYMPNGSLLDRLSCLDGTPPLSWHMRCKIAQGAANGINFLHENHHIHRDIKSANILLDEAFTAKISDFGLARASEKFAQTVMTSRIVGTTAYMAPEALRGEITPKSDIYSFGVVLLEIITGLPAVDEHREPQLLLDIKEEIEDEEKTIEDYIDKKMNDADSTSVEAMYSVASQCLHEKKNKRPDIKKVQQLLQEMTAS

Usually AC50 stands for the concentration giving half of the maximal activity seen. For `C=CCNC1=C(Cl)C(=O)c2ccccc2C1=O`, the AC50 in [1] was 50.4 µM (active); in [2], 4.58 µM (active); in [3], 53.5 µM (active); in [4], > 70 µM (inactive); in [5] it was 5.58 µM (active).

As a reminder, the EC50 is the concentration at which the effect is half-maximal. The IC50 is the midpoint of a concentration-inhibition curve. On to `CS(=O)(=O)c1ccc2c(c1)SC1=NC(=O)/C(=C/c3ccc(O)c(O)c3)C(=N)N12`, for which the half-maximal effective concentration (EC50) in assay [6] is 6.35 µM (active). In addition, the figures for the IC50 in assay [7] and in assay [8] were 5.26 µM (active) and 2.16 µM (active), respectively.

For `CN(C)c1ccc(-c2nnc(-c3cccs3)o2)cc1`, the IC50 in assay [9] is > 50 µM (inactive).

As a reminder, the Ki is a dissociation constant, usually derived from enzyme kinetics or from competition with a known ligand. In the case of `COc1ccc(C(=O)Nc2n[nH]c3ccc(-c4cn(Cc5ccccc5)nn4)cc23)cc1OC`, the Ki is > 5.01 µM (inactive) in assay [10]; > 10 µM (inactive) in [11]; 794 nM (active) in [12]; 2 µM (active) in assay [13]; 3.16 µM (active) in assay [14]; 2.51 µM (active) in assay [15]. For the same compound, the Ki was 398 nM (active) in [16]; 126 nM (active) in assay [17]; > 100 nM (inactive) in assay [18]; 200 nM (active) in assay [19]; 6.31 µM (active) in assay [20]; 25.1 nM (active) in assay [21]. The Ki is 50.1 nM (active) in [22]; > 6.31 µM (inactive) in assay [23]; 126 nM (active) in assay [24]; 79.4 nM (active) in [25]; > 3.98 µM (inactive) in [26]; 5.01 µM (active) in [27]. Also, the Ki is 398 nM (active) in assay [28]; 79.4 nM (active) in assay [29]; > 1.26 µM (inactive) in assay [30]; > 2.51 µM (inactive) in [31]; > 2 µM (inactive) in assay [32].

On to `CCOC(=O)C(C(=O)OCC)c1cc(Br)c2noc3c2c1C(=O)c1ccccc1-3`, for which, in assay [33], the half-maximal inhibitory concentration (IC50) is 35.5 µM (active). In addition, the EC50 in assay [34] is 2.9 µM (active); in assay [35], 3.06 µM (active).
